In PubChem BioAssay (NCI):
“And” between values parts separate entries of the source, which are not always exact repeats. Identical values can stand only once.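 A five-concentration, 48-hour dose response in 96-well plates underlies each endpoint, interpolated linearly between surrounding concentrations. The concentration for 50% growth inhibition is given as GI50. Definition used: TGI = concentration required for complete inhibition of growth.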

Columns and labels:
Experiment in all cases: growth of human tumour cells (NCI), 48 h
[1] = test system: A549 NSCLC
[2] = test system: CCRF-CEM leukemia
[3] = test system: DMS 273 small cell lung
[4] = test system: HT29 colon
[5] = test system: IGROV1 ovarian
[6] = test system: OVCAR-3 ovarian
[7] = test system: SF-295 CNS
[8] = test system: SK-MEL-5 melanoma
[9] = test system: SNB-78 CNS
[10] = test system: TK-10 renal

Row | SMILES | TGI [1] [µM] | TGI [2] [µM] | TGI [3] | TGI [4] | TGI [5] | TGI [6] [µM] | TGI [7] | TGI [8] [µM] | TGI [9] | TGI [10] [µM] | GI50 [1] [µM] | GI50 [2] [µM] | GI50 [3] [µM] | GI50 [4] [µM] | GI50 [5] [µM] | GI50 [6] [µM] | GI50 [7] [µM] | GI50 [8] [µM] | GI50 [9] [µM] | GI50 [10] [µM]
1 | O=C(CC/C(CC(=O)c1ccc(Cl)cc1)=N/O)Nc1ccc(Cl)c(Cl)c1 | > 100 | > 100 | > 100 µM | > 100 µM | > 100 µM | > 100 | > 100 µM | > 100 | > 100 µM | > 100 | – | – | – | – | – | – | – | – | – | –
2 | COC(=O)c1c(C)cc2c(c1O)C1(O)C(=O)c3cc4c(c(O)c3C(=O)C1(OC)C(O)C2)C(=O)C=C(NC1OC(C)C(OC)C(O)C1OC)C4=O (centres undefined) | 1.03 | 0.166 | 0.468 µM | 0.222 µM | 0.0635 µM | 0.558 | 0.146 µM | – | 0.324 µM | 0.293 | – | – | – | – | – | – | – | – | – | –
3 | Oc1ccc2c3c1OC1C(=NN=C4CCC5(O)C6Cc7ccc(O)c8c7C5(CCN6CC5CC5)C4O8)CCC4(O)C(C2)N(CC2CC2)CCC314 (centres undefined) | 42.3 | > 68.1 | 63.9 µM | 32.8 µM | > 100 µM | 34.6 | 32.6 µM | 34.8 | > 100 µM | > 70.2 | – | – | – | – | – | – | – | – | – | –
4 | COCOCc1cc(OCc2ccccc2)c(OC)cc1Br | > 100 | > 100 | > 100 µM | > 100 µM | > 100 µM | > 100 | > 100 µM | > 100 | > 100 µM | > 100 | – | – | – | – | – | – | – | – | – | –
5 | N#CCCN(CCC#N)c1ccc(/C=N\c2nc(-c3ccccc3)cs2)cc1 | > 100 | – | > 100 µM | > 100 µM | > 100 µM | > 100 | > 100 µM | > 100 | > 100 µM | > 100 | – | – | – | – | – | – | – | – | – | –
6 | CCOC(=O)N[C@H]1CCc2cc(O)c(OC)c(OC)c2-c2ccc(SC)c(=O)cc21 | > 100 | > 13.9 | > 100 µM | 7.22 µM | > 86.9 µM | 0.0375 | 0.0995 µM | 0.0145 | > 8 µM | > 100 | – | – | – | – | – | – | – | – | – | –
7 | O=C1C2C(C(=O)N1c1ccccc1)C1(c3ccccc3)OC2(c2ccccc2)c2ccccc21 (centres undefined) | > 100 | > 100 | > 100 µM | > 100 µM | > 100 µM | > 100 | > 100 µM | > 100 | – | > 100 | – | – | – | – | – | – | – | – | – | –
8 | CCC[CH2][Sn]1([CH2]CCC)[O]C(=O)c2cccc(OC)c2[O]1 | 3.37 | – | 1.96 µM | 2.09 µM | 2.15 µM | 2.01 | 2.27 µM | 2.11 | 0.959 µM | 0.829 | 1.76 | 0.0261 | 0.569 | 0.798 | 0.755 | 0.626 | 1.08 | 0.722 | 0.093 | 0.316
9 | C=CCC12CC(=O)C=C1CCC1(C2)OCCO1 (centres undefined) | > 100 | > 100 | > 100 µM | – | > 100 µM | > 100 | – | > 100 | > 100 µM | > 100 | – | – | – | – | – | – | – | – | – | –
10 | O=C(Nc1ccc([N+](=O)[O-])cc1C(=O)O)c1ccc([N+](=O)[O-])cc1 | > 100 | 26.9 | > 100 µM | > 100 µM | > 100 µM | > 100 | > 100 µM | > 100 | – | > 100 | – | – | – | – | – | – | – | – | – | –
11 | Cn1cnc([N+](=O)[O-])c1Sc1nc2cccnc2s1 | > 100 | – | 57.4 µM | 63.7 µM | 33 µM | 28.1 | > 100 µM | 35.7 | > 100 µM | 30.3 | – | – | – | – | – | – | – | – | – | –
12 | CN(C)CC(C)(C)C(/C=C/c1ccccc1)=N\Nc1ccccc1 | 4.19 | 16.2 | 11.2 µM | 27.9 µM | 17.9 µM | 14 | 0.907 µM | 20.7 | 26.8 µM | 3.48 | – | – | – | – | – | – | – | – | – | –
13 | CC1C=CC(C)C2(O)C(=O)NC(O)C12 (centres undefined) | > 100 | > 100 | > 100 µM | – | > 100 µM | – | – | > 100 | > 100 µM | > 100 | – | – | – | – | – | – | – | – | – | –
14 | COc1ccc2cc3[n+](cc2c1OC)CCc1cc2c(cc1-3)OCO2 | > 325 | – | 73.7 µM and 49.4 µM | > 100 µM and > 92.7 µM and 87.6 µM | > 100 µM and 137 µM | – | > 100 µM and 147 µM | – | > 100 µM and 167 µM | > 100 | – | 9.29 | – | 23.7 | 18.4 | – | – | 1.26 | – | –
15 | N#Cc1c(-c2ccc(Cl)cc2)c(-c2ccc(Cl)cc2)nn(CCOC(=O)CCC(=O)O)c1=O | > 88.6 | > 43.6 | 14.7 µM | 6.39 µM | > 85.3 µM | 0.853 | 16.9 µM | 2.59 | – | > 100 | – | – | – | – | – | – | – | – | – | –
